In ChEMBL document CHEMBL1143846, “Clinical pharmacodynamics of meropenem in patients with lower respiratory tract infections” (Antimicrob Agents Chemother, 2007):
In brackets after ≈: the same amount, converted by molar mass.

Key:
[1] = Ratio of fCmax to MIC in patient with lower respiratory tract infection; type: ADME; conditions: human
Streptococcus pneumoniae = assay: Antimicrobial activity against Streptococcus pneumoniae; type: functional
Pseudomonas aeruginosa = assay: Antimicrobial activity against Pseudomonas aeruginosa; type: functional
[2] = Ratio of fCmin to MIC in patient with lower respiratory tract infection; type: ADME; conditions: human
Homo sapiens [3] = species: Homo sapiens; assay: fCmax in patient with lower respiratory tract infection; type: ADME, organism-based; conditions: in vivo
Homo sapiens [4] = species: Homo sapiens; assay: fAUC in patient with lower respiratory tract infection; type: ADME, organism-based; conditions: in vivo
[5] = Ratio of fAUC to MIC in patient with lower respiratory tract infection; type: ADME; conditions: human
Homo sapiens [6] = species: Homo sapiens; assay: fCmin in patient with lower respiratory tract infection; type: ADME, organism-based; conditions: in vivo
Homo sapiens [7] = species: Homo sapiens; assay: ft>MIC in patient with lower respiratory tract infection; type: ADME, organism-based; conditions: in vivo
Klebsiella pneumoniae = assay: Antimicrobial activity against Klebsiella pneumoniae; type: functional
Haemophilus influenzae = assay: Antimicrobial activity against Haemophilus influenzae; type: functional
Staphylococcus aureus = assay: Antimicrobial activity against methicillin-susceptible Staphylococcus aureus; type: functional

Ratio [1]: 1427.66
MIC (Streptococcus pneumoniae): 0.06 µg/mL (≈ 0.156 µM)
MIC (Pseudomonas aeruginosa): 0.06 µg/mL (≈ 0.156 µM)
Ratio [2]: 34.24
fCmax (Homo sapiens [3]): 32.27 µg/mL
fAUC (Homo sapiens [4]): 157.43 µg·h/mL
Ratio [5]: 6683.38
fCmin (Homo sapiens [6]): 0.91 µg/mL
fT>MIC (Homo sapiens [7]): 91%
MIC (Klebsiella pneumoniae): 0.06 µg/mL (≈ 0.156 µM)
MIC (Haemophilus influenzae): 0.06 µg/mL (≈ 0.156 µM)
MIC (Staphylococcus aureus): 0.06 µg/mL (≈ 0.156 µM)
SMILES: C[C@@H](O)[C@H]1C(=O)N2C(C(=O)O)=C(S[C@@H]3CN[C@H](C(=O)N(C)C)C3)[C@H](C)[C@H]12 [MEROPENEM]
